Measured values: US20150320823A1, “NOVEL USE OF RICE, RICE BRAN OR RICE HULL EXTRACT AS AN HISTAMINE RECEPTOR ANTAGONIST” (KOREA FOOD RESEARCH INSTITUTE, priority 2011, published 2015)

Tested on: GABAA-benzodiazepine receptor
Assay: Sleep-improving mechanism: pentobarbital sleep test with GABAA-benzodiazepine antagonist flumazenil (FLU)
Format: in vivo
Settings: mouse; FLU 8 mg/kg i.p. 10 min before sample p.o. (DZP 0.5 mg/kg; BEE 500 mg/kg); pentobarbital 45 mg/kg 45 min later

CN1C(=O)CN=C(c2ccccc2)c2cc(Cl)ccc21 [DZP, diazepam] was tested, and the “effect of flumazenil (FLU) on the sleep-improving effect (sleep latency, sleep duration)” value was “had an effect”.
